The structures appear in SMILES notation. pIC50: −log10 of the molar value. Counter-ions that a name gives are not always drawn.

T1 sequence (O60674 808-1132 limits assumed): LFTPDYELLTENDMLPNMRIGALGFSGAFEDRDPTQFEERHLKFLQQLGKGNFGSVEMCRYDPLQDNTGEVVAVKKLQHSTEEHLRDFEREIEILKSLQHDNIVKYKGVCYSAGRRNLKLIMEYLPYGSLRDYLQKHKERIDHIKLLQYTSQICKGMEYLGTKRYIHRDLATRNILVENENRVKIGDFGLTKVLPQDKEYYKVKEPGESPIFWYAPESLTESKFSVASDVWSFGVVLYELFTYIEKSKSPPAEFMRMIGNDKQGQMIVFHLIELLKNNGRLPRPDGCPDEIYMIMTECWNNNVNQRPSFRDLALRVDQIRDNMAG

The first assay has as its target T1, recombinant JAK2 (Homo sapiens, UniProt O60674).
T1 construct: purchased Upstate Cell Signaling Solutions
In words: IC50 value determinations for Jak2 kinase, luminescence-based kinase assay (Kinase-Glo). In kind it is biochemical. As to conditions: Table 1. (In general: Kinase-Glo measures the ATP left after a reaction by luminescence.)
Method: The IC50 values for compounds were determined using a luminescence-based kinase assay with recombinant JAK2 obtained from Upstate Cell Signaling Solutions. In white, flat bottom, 96-well plates (Nunc) parallel assays were run at room temperature at a final volume of 50 μL.
Two control reactions were also ran: one reaction containing no compound and the second containing neither inhibitor nor peptide substrate. IC50 values were derived from experimental data using the non-linear curve fitting capabilities of Prism (Version 4; GraphPad Software).
As to `Cc1cc(C)cc(Nc2nc(Nc3ccc(OC4CCNCC4)cc3)ncc2C)c1` [5-methyl-N4-(3,5-dimethylphenyl)-N2-(4-(piperidin-4-yloxy)phenyl)pyrimidine-2,4-diamine hydrochloride], the pIC50 was 7.43.
Same read-out and setting: the figure for `Cc1cnc(Nc2ccc(N3CCN(C)CC3)cc2)nc1Nc1ccc(C)c2[nH]ccc12` [5-methyl-N4-(7-methyl-1H-indol-4-yl)-N2-(4-(4-methylpiperazin-1-yl)phenyl)pyrimidine-2,4-diamine Hydrochloride] is 8.42; for `Cc1cnc(Nc2ccc(OC3CCNCC3)cc2)nc1Nc1cccc(C(=O)N2CCCC2)c1` [(3-{5-Methyl-2-[4-(piperidin-4-yloxy)-phenylamino]-pyrimidin-4-ylamino}-phenyl)-pyrrolidin-1-yl-methanone] it is 6.95.
Same read-out and setting: the figure for `Cc1cnc(Nc2ccc(-n3cccn3)cc2)nc1Nc1cccc(C(C)(C)C)c1` [N2-(4-(1H-pyrazol-1-yl)phenyl)-N4-(3-tert-butylphenyl)-5-methylpyrimidine-2,4-diamine] is 6.82; for `Cc1cnc(Nc2ccc(OCCN3CCCC3)cc2)nc1Nc1cccc(OC(F)(F)F)c1` [N2-(4-(2-(pyrrolidin-1-yl)ethoxy)phenyl)-5-methyl-N4-(3-(trifluoromethoxy)phenyl) pyrimidine-2,4-diamine] it is 7.68; for `Cc1cnc(Nc2ccc(OCCN3CCCC3)cc2)nc1Nc1cccc([N+](=O)[O-])c1` [N2-(4-(2-(pyrrolidin-1-yl)ethoxy)phenyl)-5-methyl-N4-(3-nitrophenyl)pyrimidine-2,4-diamine Hydrochloride] it is 7.21.
Consider `Cc1cnc(Nc2ccc(OCCN3CCCC3)cc2)nc1Nc1ccc(C)c2[nH]ccc12` [N2-(4-(2-(pyrrolidin-1-yl)ethoxy)phenyl)-5-methyl-N4-(7-methyl-1H-indol-4-yl)pyrimidine-2,4-diamine Hydrochloride], for which the pIC50 is 8.16.
On the same count and under the same terms, the value for `Cc1cnc(Nc2ccc(OCCN3CCCC3)cc2)nc1Nc1cccc2ccccc12` [N2-(4-(2-(pyrrolidin-1-yl)ethoxy)phenyl)-5-methyl-N4-(naphthalen-1-yl)pyrimidine-2,4-diamine Hydrochloride] was 7.70.
Consider `Cc1ccc(Nc2nc(Nc3ccc(OCCN4CCCC4)cc3)ncc2C)cc1` [N2-(4-(2-(pyrrolidin-1-yl)ethoxy)phenyl)-5-methyl-N4-p-tolylpyrimidine-2,4-diamine Hydrochloride], for which the pIC50 is 7.45.
Still for that read-out and setting: the value for `Cc1cnc(Nc2ccc(OCCN3CCCC3)cc2)nc1Nc1cccc2[nH]ccc12` [N2-(4-(2-(pyrrolidin-1-yl)ethoxy)phenyl)-N4-(1H-indol-4-yl)-5-methylpyrimidine-2,4-diamine Hydrochloride] was 7.72.
Same read-out and setting: the value for `Cc1cnc(Nc2ccc(OCCN3CCCC3)cc2)nc1Nc1cccc(C(F)(F)F)c1` [N2-(4-(2-(pyrrolidin-1-yl)ethoxy)phenyl)-N4-(3-(trifluoromethyl)phenyl)-5-methylpyrimidine-2,4-diamine] was 7.75; that for `Cc1cnc(Nc2ccc(OCCN3CCCC3)cc2)nc1Nc1cccc(C(C)(C)C)c1` [N2-(4-(2-(pyrrolidin-1-yl)ethoxy)phenyl)-N4-(3-tert-butylphenyl)-5-methylpyrimidine-2,4-diamine Hydrochloride] was 8.17.
Same read-out and setting: the figure for `Cc1cnc(Nc2nc(Nc3ccc(OCCN4CCCC4)cc3)ncc2C)nc1Nc1cccc(C(C)(C)C)c1` [N2-(4-(2-(pyrrolidin-1-yl)ethoxy)phenyl)-N4-(4-(3-tert-butylphenylamino)-5-methylpyrimidin-2-yl)-5-methylpyrimidine-2,4-diamine Hydrochloride] is 6.82.
Regarding `Cc1cnc(Nc2ccc(OCCN3CCCC3)cc2)nc1Nc1ccc(C(F)(F)F)cc1` [N2-(4-(2-(pyrrolidin-1-yl)ethoxy)phenyl)-N4-(4-(trifluoromethyl)phenyl)-5-methylpyrimidine-2,4-diamine hydrochloride], the pIC50 is 7.40.
Same read-out and setting: the figure for `Cc1cnc(Nc2ccc(OCCN3CCCC3)cc2)nc1Nc1ccc(Cl)c(C(F)(F)F)c1` [N2-(4-(2-(pyrrolidin-1-yl)ethoxy)phenyl)-N4-(4-chloro-3-(trifluoromethyl)phenyl)-5-methylpyrimidine-2,4-diamine] is 7.63; for `Cc1cc(Nc2nc(Nc3ccc(OCCN4CCCC4)cc3)ncc2C)ccc1Cl` [N2-(4-(2-(pyrrolidin-1-yl)ethoxy)phenyl)-N4-(4-chloro-3-methylphenyl)-5-methylpyrimidine-2,4-diamine Hydrochloride] it is 7.91; for `Cc1cnc(Nc2ccc(OCCN3CCCC3)cc2)nc1Nc1ccc(Cl)c2[nH]ccc12` [N2-(4-(2-(pyrrolidin-1-yl)ethoxy)phenyl)-N4-(7-chloro-1H-indol-4-yl)-5-methylpyrimidine-2,4-diamine Hydrochloride] it is 8.94.
As for `Cc1cnc(Nc2ccc(OCCN3CCCC3)cc2)nc1Nc1ccc(F)c2[nH]ccc12` [N2-(4-(2-(pyrrolidin-1-yl)ethoxy)phenyl)-N4-(7-fluoro-1H-indol-4-yl)-5-methylpyrimidine-2,4-diamine Hydrochloride], the pIC50 was 8.03.
The same measure, in the same setting: the figure for `Cc1cnc(Nc2ccc(OCCN3CCCC3)cc2)nc1Nc1nccc2ccccc12` [N2-(4-(2-(pyrrolidin-1-yl)ethoxy)phenyl)-N4-(isoquinolin-1-yl)-5-methylpyrimidine-2,4-diamine] is 5.98; for `Cc1cnc(Nc2ccc(CN3CCOCC3)cc2)nc1Nc1cccc2[nH]ccc12` [N4-(1H-Indol-4-yl)-5-methyl-N2-(4-morpholin-4-ylmethyl-phenyl)-pyrimidine-2,4-diamine] it is 8.13; for `Cc1cnc(Nc2ccc(CN3CCNCC3)cc2)nc1Nc1cccc2[nH]ccc12` [N4-(1H-Indol-4-yl)-5-methyl-N2-(4-piperazin-1-ylmethyl-phenyl)-pynmidine-2,4-diamine] it is 8.00.

The same assay, now with this note: Table 5, Initial Screening Hits for JAK2.
Take `COc1cc(Nc2nc(Nc3ccc(OCCN4CCCC4)cc3)ncc2C#N)c(Cl)cc1Cl` [Compound 1]: the pIC50 is 5.20.
On the same count and under the same terms, the value for `COc1cc(Nc2nc(Nc3cccc(OCCN4CCCC4)c3)ncc2C#N)c(Cl)cc1Cl` [Compound 2] was 4.98; that for `COc1cc(Nc2nc(Nc3cccc(OCCN4CCCC4)c3)ncc2C)c(Cl)cc1Cl` [Compound 3] was 5.69.

Still in this assay, the particulars now being: Table 6.
Consider `COc1cccc(Nc2ccnc(Nc3ccc(OCCN4CCCC4)cc3)n2)c1` [Compound 4], for which the pIC50 was 6.98.
For `COc1cccc(Nc2nc(Nc3ccc(OCCN4CCCC4)cc3)ncc2C)c1` [Compound 5], the pIC50 is 7.28.
Still for that read-out and setting: the value for `COc1cc(Nc2nc(Nc3ccc(OCCN4CCCC4)cc3)ncc2C)ccc1Cl` [Compound 6] was 8.10.

Still in this assay, the particulars now being: Table 7, SAR for the P3 region.
`COc1cc(Nc2nc(Nc3cccc(OCCN4CCCC4)c3)ncc2C#N)c(Cl)cc1Cl` [Compound 2]: the pIC50 was 4.98.
Still for that read-out and setting: the value for `COc1cc(Nc2nc(Nc3cccc(OCCN4CCCC4)c3)ncc2C)c(Cl)cc1Cl` [Compound 3] was 5.69; that for `COc1cccc(Nc2ccnc(Nc3ccc(OCCN4CCCC4)cc3)n2)c1` [Compound 4] was 6.98.
Still for that read-out and setting: the figure for `COc1cccc(Nc2nc(Nc3ccc(OCCN4CCCC4)cc3)ncc2C)c1` [Compound 5] is 7.28; for `COc1cc(Nc2nc(Nc3ccc(OCCN4CCCC4)cc3)ncc2C)ccc1Cl` [Compound 6] it is 8.10; for `COc1ccc(Nc2ncc(C)c(Nc3cccc4c3OCO4)n2)cc1` [Compound 7] it is 7.34.
Take `Cc1nc(Nc2ccccc2)nc(Nc2cccc3c2OCO3)c1C` [Compound 8]: the pIC50 was < 5.00.

The same assay, now with this note: Table 8, SAR of the P4 region.
As to `COc1cccc(Nc2ccnc(Nc3ccc(OCCN4CCCC4)cc3)n2)c1` [Compound 4], the pIC50 was 6.98.
In the case of `Cc1cnc(Nc2ccc(N3CCN(C)CC3)cc2)nc1Nc1cc(C)c(Cl)c(C)c1` [Compound 38], the pIC50 is 7.92.

The assay is the same for the next values; noted with them: Table 9, SAR of the P2/P1 region.
For the compound `Cc1cnc(Nc2cccc(S(=O)(=O)NC(C)(C)C)c2)nc1Nc1cccc(S(=O)(=O)NC(C)(C)C)c1` [Compound 58], the pIC50 is 6.15.

By pIC50 is commonly meant the IC50 on a negative log10 scale, so that one unit is a factor of ten.

For the origin of these results see patent US8604042B2, “Bi-aryl meta-pyrimidine inhibitors of kinases” (TargeGen, Inc., priority 2005, dated 2013).
